Measurements published in US6773721B1, “Osmotic caplet” (ALZA Corporation, priority 1992, dated 2004).

experiment: Osmotic pressure of saturated solutions by vapor pressure osmometer; format: physicochemical; details: saturated solution in water at 37° C.; Model 320B Vapor Pressure Osmometer
Procedure: The osmagent is initially present in excess and it can be any physical form such as particle, crystal, pellet, tablet, strip, film or granule. […] In the table, the osmotic pressure π, is in atmospheres, ATM. The osmotic pressure is measured in a commercially available osmometer that measures the vapor pressure difference between pure water and the solution to be analyzed, and according to standard thermodynamic principles, the vapor pressure ratio is converted into osmotic pressure difference. […] The osmometer used for the present measurements is identified as Model 320B, Vapor Pressure Osmometer, manufactured by Hewlett Packard Co., Avondale, Pa.

Molecule	OSMOTIC PRESSURE [ATM]
O=P([O-])([O-])O.[Na+].[Na+] [Sodium Phosphate Dibasic Anhydrous]	29
Sodium Phosphate Monobasic.H2O	28
O.O.O.O.O.O.O.O.O.O.O.O.O=P([O-])([O-])O.[Na+].[Na+] [Sodium Phosphate Dibasic.12H2O]	31
OC[C@@H](O)[C@@H](O)[C@H](O)[C@H](O)CO [Mannitol]	38
O=S(=O)([O-])[O-].[K+].[K+] [Potassium Sulfate]	39
O=C(CO)[C@@H](O)[C@H](O)[C@H](O)CO [Fructose]	355
[Cl-].[Na+] [Sodium Chloride]	356
O.O.O.O.O.O.O.O.O.O.O.O.O=P([O-])([O-])[O-].[Na+].[Na+].[Na+] [Sodium Phosphate Tribasic.12H2O]	36
[Cl-].[K+] [Potassium Chloride]	245
O.O.O.O.O.O.O.O=P([O-])([O-])O.[Na+].[Na+] [Sodium Phosphate Dibasic.7H2O]	31
